Biological target: human NaV 1.8 (Homo sapiens, UniProt Q9Y5Y9)
Experiment: E-VIPR assay for detecting and measuring NaV inhibition properties
Type: cell-based
Settings: E-VIPR assay conducted in the presence of human serum; HEK cells expressing truncated human NaV 1.8; read-out: IC50
Outline: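 Membrane-potential (coumarin/oxonol) readout after 10 s of 10 Hz biphasic electrical stimulation on E-VIPR. Compounds: 11-point 3-fold dilutions, […], 0.625% DMSO, 30 min at room temperature, human serum optional. Cells: HEK expressing truncated human NaV1.8 co-transduced with KIR2.1.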

human NaV 1.8, sequence (Q9Y5Y9 whole entry, looked up): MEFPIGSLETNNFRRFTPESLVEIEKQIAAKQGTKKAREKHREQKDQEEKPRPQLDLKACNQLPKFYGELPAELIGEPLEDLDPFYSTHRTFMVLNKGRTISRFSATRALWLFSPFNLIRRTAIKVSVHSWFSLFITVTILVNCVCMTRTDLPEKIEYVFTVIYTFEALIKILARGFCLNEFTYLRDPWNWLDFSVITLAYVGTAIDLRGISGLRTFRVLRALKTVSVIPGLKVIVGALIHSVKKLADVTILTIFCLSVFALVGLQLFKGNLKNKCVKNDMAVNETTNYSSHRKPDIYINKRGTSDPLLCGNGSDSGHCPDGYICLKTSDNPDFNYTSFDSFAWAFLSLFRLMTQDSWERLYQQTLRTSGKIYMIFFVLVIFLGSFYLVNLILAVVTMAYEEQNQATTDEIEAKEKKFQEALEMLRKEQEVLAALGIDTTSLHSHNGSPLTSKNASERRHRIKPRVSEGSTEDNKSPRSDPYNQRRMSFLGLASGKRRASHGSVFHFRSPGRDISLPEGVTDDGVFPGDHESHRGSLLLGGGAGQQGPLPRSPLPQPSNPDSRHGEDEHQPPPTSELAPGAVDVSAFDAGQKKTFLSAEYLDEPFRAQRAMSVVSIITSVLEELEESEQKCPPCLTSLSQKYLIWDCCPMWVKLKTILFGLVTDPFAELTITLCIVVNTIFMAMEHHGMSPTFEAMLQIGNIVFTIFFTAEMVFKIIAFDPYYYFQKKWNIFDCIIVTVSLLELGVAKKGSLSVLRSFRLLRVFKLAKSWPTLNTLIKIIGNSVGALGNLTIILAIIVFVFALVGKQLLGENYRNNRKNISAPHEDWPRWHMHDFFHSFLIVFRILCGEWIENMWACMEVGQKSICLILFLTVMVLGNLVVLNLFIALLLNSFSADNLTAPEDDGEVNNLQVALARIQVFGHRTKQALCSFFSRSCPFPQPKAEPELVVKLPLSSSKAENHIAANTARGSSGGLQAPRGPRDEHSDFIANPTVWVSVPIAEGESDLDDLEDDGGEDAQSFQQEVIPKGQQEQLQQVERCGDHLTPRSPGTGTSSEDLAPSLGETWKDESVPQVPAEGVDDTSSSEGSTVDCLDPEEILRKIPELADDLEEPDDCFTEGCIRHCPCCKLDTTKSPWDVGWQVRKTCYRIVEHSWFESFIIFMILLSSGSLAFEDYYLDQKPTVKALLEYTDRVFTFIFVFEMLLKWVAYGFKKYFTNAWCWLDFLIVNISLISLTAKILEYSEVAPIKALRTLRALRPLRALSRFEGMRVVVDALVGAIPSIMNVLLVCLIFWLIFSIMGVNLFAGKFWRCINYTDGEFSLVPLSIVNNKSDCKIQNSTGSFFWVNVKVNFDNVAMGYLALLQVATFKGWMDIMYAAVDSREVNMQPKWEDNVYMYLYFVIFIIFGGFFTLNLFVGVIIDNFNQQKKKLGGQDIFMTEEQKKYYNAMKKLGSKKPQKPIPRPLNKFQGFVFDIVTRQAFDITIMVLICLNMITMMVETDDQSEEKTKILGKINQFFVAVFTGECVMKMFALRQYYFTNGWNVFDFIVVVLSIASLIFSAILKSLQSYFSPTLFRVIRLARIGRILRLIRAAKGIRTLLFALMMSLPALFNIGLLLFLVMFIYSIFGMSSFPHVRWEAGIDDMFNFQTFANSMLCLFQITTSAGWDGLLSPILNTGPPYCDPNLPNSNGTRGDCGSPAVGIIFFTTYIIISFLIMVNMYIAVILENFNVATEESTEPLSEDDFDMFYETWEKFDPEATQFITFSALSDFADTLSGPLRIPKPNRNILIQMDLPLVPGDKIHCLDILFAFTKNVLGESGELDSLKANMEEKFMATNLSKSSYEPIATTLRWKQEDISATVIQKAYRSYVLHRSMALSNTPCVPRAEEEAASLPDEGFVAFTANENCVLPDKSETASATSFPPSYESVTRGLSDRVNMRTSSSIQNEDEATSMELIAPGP

Row | IC50 | Compound
1 | 74 nM | NC(=O)c1ccc(NC(=O)c2c(Oc3ccc(OC(F)(F)F)c(F)c3Cl)ccc(C(F)(F)F)c2F)cn1 [Compound 297, 5-[[6-[2-Chloro-3-Fluoro-4-(Trifluoromethoxy)Phenoxy]-2-Fluoro-3-(Trifluoromethyl)Benzoyl]Amino]Pyridine-2-Carboxamide]
2 | 9.8 nM | NC(=O)c1cc(NC(=O)c2c(Oc3ccc(OC(F)(F)F)c(F)c3Cl)ccc(C(F)(F)F)c2F)ccn1 [Compound 298, 4-[[6-[2-Chloro-3-Fluoro-4-(Trifluoromethoxy)Phenoxy]-2-Fluoro-3-(Trifluoromethyl)Benzoyl]Amino]Pyridine-2-Carboxamide]
3 | 6.4 nM | COc1cc(Oc2ccc(F)c(F)c2OC)c(C(=O)Nc2ccnc(C(N)=O)c2)c(F)c1C(F)(F)F [Compound 299, 4-[[6-(3,4-Difluoro-2-Methoxy-Phenoxy)-2-Fluoro-4-Methoxy-3-(Trifluoromethyl)Benzoyl]Amino]Pyridine-2-Carboxamide]
4 | 1400 nM | CNC(=O)c1cc(NC(=O)c2c(Oc3ccc(F)c(F)c3OC)cc(OC)c(C(F)(F)F)c2NC)ccn1 [Compound 300, 4-[[6-(3,4-Difluoro-2-Methoxy-Phenoxy)-4-Methoxy-2-(Methylamino)-3-(Trifluoromethyl)Benzoyl]Amino]-N-Methyl-Pyridine-2-Carboxamide]
5 | 22 nM | CNC(=O)c1cc(NC(=O)c2c(Oc3ccc(F)c(F)c3OC)cc(OC)c(C(F)(F)F)c2F)ccn1 [Compound 301, 4-[[6-(3,4-Difluoro-2-Methoxy-Phenoxy)-2-Fluoro-4-Methoxy-3-(Trifluoromethyl)Benzoyl]Amino]-N-Methyl-Pyridine-2-Carboxamide]
6 | 280 nM | COc1c(Oc2cnc(C(F)(F)F)c(OC)c2C(=O)Nc2cc(C(N)=O)ncc2C)ccc(F)c1F [Compound 302, N-(2-carbamoyl-5-methyl-4-pyridyl)-5-(3,4-difluoro-2-methoxy-phenoxy)-3-methoxy-2-(trifluoromethyl)pyridine-4-carboxamide]
7 | 19 nM | COc1c(Oc2ccc(F)c(F)c2C(=O)Nc2ccnc(C(N)=O)c2)ccc(OC(F)(F)F)c1F [Compound 303, 4-[[2,3-difluoro-6-[3-fluoro-2-methoxy-4-(trifluoromethoxy)phenoxy]benzoyl]amino]pyridine-2-carboxamide]
8 | 54 nM | COc1c(Oc2ccc(F)c(F)c2C(=O)Nc2cc(C(N)=O)ncc2C)ccc(OC(F)(F)F)c1F [Compound 304, 4-[[2,3-difluoro-6-[3-fluoro-2-methoxy-4-(trifluoromethoxy)phenoxy]benzoyl]amino]-5-methyl-pyridine-2-carboxamide]
9 | 2.3 nM | COc1c(Oc2ccc(Cl)c(F)c2C(=O)Nc2ccnc(C(N)=O)c2)ccc(OC(F)(F)F)c1F [Compound 305, 4-[[3-chloro-2-fluoro-6-[3-fluoro-2-methoxy-4-(trifluoromethoxy)phenoxy]benzoyl]amino]pyridine-2-carboxamide]
10 | 19 nM | COc1c(Oc2ccc(Cl)c(F)c2C(=O)Nc2ccc(C(N)=O)nc2)ccc(OC(F)(F)F)c1F [Compound 306, 5-[[3-chloro-2-fluoro-6-[3-fluoro-2-methoxy-4-(trifluoromethoxy)phenoxy]benzoyl]amino]pyridine-2-carboxamide]
11 | 5.9 nM | COc1c(Oc2cc(F)c(F)c(F)c2C(=O)Nc2ccnc(C(N)=O)c2)ccc(OC(F)(F)F)c1F [Compound 307, 4-[[2,3,4-trifluoro-6-[3-fluoro-2-methoxy-4-(trifluoromethoxy)phenoxy]benzoyl]amino]pyridine-2-carboxamide]
12 | 36 nM | COc1c(Oc2cc(F)c(F)c(F)c2C(=O)Nc2cnc(C(N)=O)nc2)ccc(OC(F)(F)F)c1F [Compound 308, 5-[[2,3,4-trifluoro-6-[3-fluoro-2-methoxy-4-(trifluoromethoxy)phenoxy]benzoyl]amino]pyrimidine-2-carboxamide]
13 | 1.4 nM | COc1c(Oc2cc(Cl)c(C)c(F)c2C(=O)Nc2ccnc(C(N)=O)c2)ccc(OC(F)(F)F)c1F [Compound 309, 4-[[4-chloro-2-fluoro-6-[3-fluoro-2-methoxy-4-(trifluoromethoxy)phenoxy]-3-methyl-benzoyl]amino]pyridine-2-carboxamide]
14 | 2.5 nM | COc1c(Oc2ccc(C3CCC3)c(F)c2C(=O)Nc2ccnc(C(N)=O)c2)ccc(OC(F)(F)F)c1F [Compound 310, 4-[[3-cyclobutyl-2-fluoro-6-[3-fluoro-2-methoxy-4-(trifluoromethoxy)phenoxy]benzoyl]amino]pyridine-2-carboxamide]
15 | 13 nM | COc1c(Oc2cc3c(cc2C(=O)Nc2ccnc(C(N)=O)c2)OC(F)(F)O3)ccc(OC(F)(F)F)c1F [Compound 311, 4-[[2,2-difluoro-6-[3-fluoro-2-methoxy-4-(trifluoromethoxy)phenoxy]-1,3-benzodioxole-5-carbonyl]amino]pyridine-2-carboxamide]
16 | 7.9 nM | COc1c(Oc2ccc(C(F)(F)F)c(C)c2C(=O)Nc2cc(C(N)=O)ncc2C)ccc(OC(F)(F)F)c1F [Compound 312, 4-[[6-[3-fluoro-2-methoxy-4-(trifluoromethoxy)phenoxy]-2-methyl-3-(trifluoromethyl)benzoyl]amino]-5-methyl-pyridine-2-carboxamide]
17 | 121 nM | COc1c(Oc2ccc(C(F)(F)F)c(C)c2C(=O)Nc2cc(C(N)=O)ccn2)ccc(OC(F)(F)F)c1F [Compound 313, 2-[[6-[3-fluoro-2-methoxy-4-(trifluoromethoxy)phenoxy]-2-methyl-3-(trifluoromethyl)benzoyl]amino]pyridine-4-carboxamide]
18 | 6.5 nM | COc1c(Oc2ccc(C(F)(F)F)c(C)c2C(=O)Nc2cnc(C(N)=O)nc2)ccc(OC(F)(F)F)c1F [Compound 314, 5-[[6-[3-fluoro-2-methoxy-4-(trifluoromethoxy)phenoxy]-2-methyl-3-(trifluoromethyl)benzoyl]amino]pyrimidine-2-carboxamide]
19 | 120 nM | COc1c(Oc2ccc(C(F)(F)F)c(C)c2C(=O)Nc2cc(C(N)=O)ncn2)ccc(OC(F)(F)F)c1F [Compound 315, 6-[[6-[3-fluoro-2-methoxy-4-(trifluoromethoxy)phenoxy]-2-methyl-3-(trifluoromethyl)benzoyl]amino]pyrimidine-4-carboxamide]
20 | 24 nM | COc1c(Oc2ccc(C(F)(F)F)c(C)c2C(=O)Nc2cnc(C(N)=O)cn2)ccc(OC(F)(F)F)c1F [Compound 316, 5-[[6-[3-fluoro-2-methoxy-4-(trifluoromethoxy)phenoxy]-2-methyl-3-(trifluoromethyl)benzoyl]amino]pyrazine-2-carboxamide]
21 | 520 nM | COc1c(Oc2ccc(C(F)(F)F)c(C)c2C(=O)Nc2ccc(C(N)=O)nn2)ccc(OC(F)(F)F)c1F [Compound 317, 6-[[6-[3-fluoro-2-methoxy-4-(trifluoromethoxy)phenoxy]-2-methyl-3-(trifluoromethyl)benzoyl]amino]pyridazine-3-carboxamide]
22 | 15.1 nM | COc1c(Oc2cc(C(F)(F)F)cc(F)c2C(=O)Nc2cc(C(N)=O)ncc2C)ccc(OC(F)(F)F)c1F [Compound 318, 4-[[2-fluoro-6-[3-fluoro-2-methoxy-4-(trifluoromethoxy)phenoxy]-4-(trifluoromethyl)benzoyl]amino]-5-methyl-pyridine-2-carboxamide]
23 | 5.2 nM | [2H]C([2H])([2H])Oc1c(Oc2ccc(C(F)F)c(OC)c2C(=O)Nc2ccnc(C(N)=O)c2)ccc(OC(F)(F)F)c1F [Compound 319, 4-[[3-(difluoromethyl)-6-[3-fluoro-2-(trideuteriomethoxy)-4-(trifluoromethoxy)phenoxy]-2-methoxy-benzoyl]amino]pyridine-2-carboxamide]
24 | 0.4 nM | COc1cc(Oc2ccc(OC(F)(F)F)c(F)c2OC)c(C(=O)Nc2ccnc(C(N)=O)c2)c(F)c1C(F)(F)F [Compound 320, 4-[[2-fluoro-6-[3-fluoro-2-methoxy-4-(trifluoromethoxy)phenoxy]-4-methoxy-3-(trifluoromethyl)benzoyl]amino]pyridine-2-carboxamide]
25 | 11 nM | COc1cc(Oc2ccc(OC(F)(F)F)c(F)c2OC)c(C(=O)Nc2ccc(C(N)=O)nc2)c(F)c1C(F)(F)F [Compound 321, 5-[[2-fluoro-6-[3-fluoro-2-methoxy-4-(trifluoromethoxy)phenoxy]-4-methoxy-3-(trifluoromethyl)benzoyl]amino]pyridine-2-carboxamide]
26 | 6.1 nM | COc1c(Oc2ccc(OC(F)(F)F)c(F)c2C(=O)Nc2ccnc(C(N)=O)c2)ccc(OC(F)(F)F)c1F [Compound 322, 4-[[2-fluoro-6-[3-fluoro-2-methoxy-4-(trifluoromethoxy)phenoxy]-3-(trifluoromethoxy)benzoyl]amino]pyridine-2-carboxamide]
27 | 0.8 nM | COc1c(Oc2cc(C(F)(F)F)c(C)c(F)c2C(=O)Nc2ccnc(C(N)=O)c2)ccc(OC(F)(F)F)c1F [Compound 323, 4-[[2-fluoro-6-[3-fluoro-2-methoxy-4-(trifluoromethoxy)phenoxy]-3-methyl-4-(trifluoromethyl)benzoyl]amino]pyridine-2-carboxamide]
28 | 1.7 nM | COc1cc(Oc2ccc(OC(F)(F)F)c(F)c2OC)c(C(=O)Nc2ccnc(C(N)=O)c2)c(F)c1Cl [Compound 324, 4-[[3-chloro-2-fluoro-6-[3-fluoro-2-methoxy-4-(trifluoromethoxy)phenoxy]-4-methoxy-benzoyl]amino]pyridine-2-carboxamide]
29 | 1.6 nM | COc1c(Oc2cc(C(F)(F)F)c(OC)c(F)c2C(=O)Nc2ccnc(C(N)=O)c2)ccc(OC(F)(F)F)c1F [Compound 325, 4-[[2-fluoro-6-[3-fluoro-2-methoxy-4-(trifluoromethoxy)phenoxy]-3-methoxy-4-(trifluoromethyl)benzoyl]amino]pyridine-2-carboxamide]
30 | 1.3 nM | COc1c(Cl)cc(Oc2ccc(OC(F)(F)F)c(F)c2OC)c(C(=O)Nc2ccnc(C(N)=O)c2)c1F [Compound 326, 4-[[4-chloro-2-fluoro-6-[3-fluoro-2-methoxy-4-(trifluoromethoxy)phenoxy]-3-methoxy-benzoyl]amino]pyridine-2-carboxamide]

Reference: patent publication US12441703B2, “Carboxamides as modulators of sodium channels” (VERTEX PHARMACEUTICALS INCORPORATED, priority 2019, dated 2025)
